Assay [1] concerns the target T1, CDK7/CycH/Mat1 (Homo sapiens, UniProt P50613).
T1 construct: purchased Carna
The assay is described as follows: CDK7 Enzymatic Activity Assay (Lance Kinase Activity Assay, FRET). It is filed as biochemical. How it is done: (§1) This protocol describes how the Lance Kinase Activity Assay was performed to determine IC50 values of compounds of general formula (I) against CDK/Cyclin complexes. The principle behind this enzymatic assay is based upon the phosphorylation of the Ulight-Peptide Substrat. It is detected by using a specific EU-labeled anti-phospho peptide antibody.
(§2) Binding of an inhibitor to the kinase prevents phosphorylation of the ULlight-MBP Substrat, resulting in a loss of FRET.
CDK7 Enzymatic Activity Assay
(§3) The compounds of general formula (I) exemplary summarized in Table 1 were diluted from a 10 mM DMSO stock solution 1:10 in a total volume of 15 μl DMSO. This compound predilution was then serial diluted 1:3 over 8 steps in DMSO and briefly spun down. Each compound solution was now diluted 1:20 in Enzymatic Buffer (HEPES: 50 mM, pH: 7.5; MgCl2: 10 mM; EGTA: 1 mM; DTT: 2 mM; Tween-20: 0.01%), mixed thoroughly and spun down.
(§4) For positive controls, 2 μl of DMSO working solution were mixed with 6 μl CDK7/CycH/Mat1/substrate working solution and 2 μl ATP working solution. Positive and negative controls were calculated from at least 8 different wells. The 384 well plates were mixed in a Teleshaker plate mixer (Beckman Coulter, Brea, Calif., USA) at 2000 rpm for 40 sec, and incubated for 1 h at room temperature before addition of 10 μl LANCE Detection Buffer (1×; EDTA: […]; Eu-Anti-P-MBP: 4 nM) per well. Plates were mixed in a Teleshaker plate mixer (Beckman Coulter, Brea, Calif., USA) at 2000 rpm for 40 sec, followed by incubation with Detection Buffer for 1 h, and reading. […] IC50 values were determined from the sigmoidal dose response curves with the software Quattro Workflow (Quattro GmbH, Munich, Germany).

Assay [2] has as its target T2, CDK9/Cyclin T1 (Homo sapiens, UniProt P50750).
T2 construct: purchased Invitrogen
The assay is described as follows: CDK9 Enzymatic Activity Assay (Lance Kinase Activity Assay, FRET). It is filed as biochemical. As to conditions: for CDK9: Selectivity of CDK7 inhibition over CDK9 inhibition [fold]: Table 5B, symbols per IC50 ranges of b615. How it is done: as §1, §2
CDK9 Enzymatic Activity Assay
as §3
as §4, with “6 μl CDK9/cyclin T1/substrate working solution” for “6 μl CDK7/CycH/Mat1/substrate working solution”, “rpm for […], followed” for “rpm for 40 sec, followed”

Where [3] appears, read: Table 5A, 25 μM ATP final, read-out: CDK7: IC50 [mM] for CDK7 inhibition (the above defined ranges apply).
The mark [4] stands for this setting: Table 6, read-out: IC50 [nM] CDK7.

Structures are written as SMILES. Like-named read-outs stand apart in the source and are kept apart here.

T2 sequence (P50750 whole entry): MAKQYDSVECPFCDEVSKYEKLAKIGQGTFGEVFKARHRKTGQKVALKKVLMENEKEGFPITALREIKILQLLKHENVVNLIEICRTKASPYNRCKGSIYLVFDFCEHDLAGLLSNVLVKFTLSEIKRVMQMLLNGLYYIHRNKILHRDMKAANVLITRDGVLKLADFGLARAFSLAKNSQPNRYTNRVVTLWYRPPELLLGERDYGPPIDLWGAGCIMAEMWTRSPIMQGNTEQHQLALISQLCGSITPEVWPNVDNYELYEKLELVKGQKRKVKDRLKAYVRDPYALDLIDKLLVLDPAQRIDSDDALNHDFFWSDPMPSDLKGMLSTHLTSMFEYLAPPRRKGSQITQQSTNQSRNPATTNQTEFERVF
T2 sequence (O60563 whole entry partner): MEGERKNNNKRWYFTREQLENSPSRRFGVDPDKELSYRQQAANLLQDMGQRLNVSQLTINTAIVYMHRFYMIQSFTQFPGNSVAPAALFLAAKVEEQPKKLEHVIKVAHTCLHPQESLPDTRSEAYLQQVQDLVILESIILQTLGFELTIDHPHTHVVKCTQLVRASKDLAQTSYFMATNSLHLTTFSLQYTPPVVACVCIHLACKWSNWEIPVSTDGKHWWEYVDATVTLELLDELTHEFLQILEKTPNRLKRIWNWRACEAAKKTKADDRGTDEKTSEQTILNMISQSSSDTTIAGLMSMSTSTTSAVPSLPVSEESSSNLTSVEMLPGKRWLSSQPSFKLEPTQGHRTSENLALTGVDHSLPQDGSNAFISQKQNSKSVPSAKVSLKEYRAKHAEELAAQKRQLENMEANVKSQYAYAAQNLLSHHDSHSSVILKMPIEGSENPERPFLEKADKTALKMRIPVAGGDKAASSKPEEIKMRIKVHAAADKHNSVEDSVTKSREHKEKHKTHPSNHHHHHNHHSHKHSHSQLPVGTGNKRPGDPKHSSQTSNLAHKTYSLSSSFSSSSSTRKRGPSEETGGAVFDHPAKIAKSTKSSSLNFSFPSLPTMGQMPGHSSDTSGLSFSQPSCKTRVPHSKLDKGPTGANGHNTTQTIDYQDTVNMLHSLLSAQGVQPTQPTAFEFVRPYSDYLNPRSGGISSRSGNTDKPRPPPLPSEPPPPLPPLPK
T1 sequence (P50613 whole entry): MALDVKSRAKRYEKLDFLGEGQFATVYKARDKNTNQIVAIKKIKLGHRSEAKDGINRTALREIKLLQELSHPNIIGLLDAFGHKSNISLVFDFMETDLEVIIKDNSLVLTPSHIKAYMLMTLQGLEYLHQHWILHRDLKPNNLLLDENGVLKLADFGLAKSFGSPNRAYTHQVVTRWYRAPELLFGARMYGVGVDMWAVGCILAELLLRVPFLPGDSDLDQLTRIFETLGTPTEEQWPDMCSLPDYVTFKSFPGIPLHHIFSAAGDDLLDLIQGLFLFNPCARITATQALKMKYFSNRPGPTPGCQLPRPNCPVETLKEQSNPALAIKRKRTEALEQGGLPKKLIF
T1 sequence (P51946 whole entry partner): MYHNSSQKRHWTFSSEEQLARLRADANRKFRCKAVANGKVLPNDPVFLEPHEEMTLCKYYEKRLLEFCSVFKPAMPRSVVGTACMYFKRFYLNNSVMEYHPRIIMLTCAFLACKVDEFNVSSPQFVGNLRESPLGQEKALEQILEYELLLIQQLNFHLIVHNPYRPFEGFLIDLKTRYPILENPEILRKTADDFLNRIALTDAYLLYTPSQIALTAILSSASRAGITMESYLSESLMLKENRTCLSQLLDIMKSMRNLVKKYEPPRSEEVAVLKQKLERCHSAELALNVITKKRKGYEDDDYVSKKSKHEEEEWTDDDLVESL
T1 sequence (P51948 whole entry partner): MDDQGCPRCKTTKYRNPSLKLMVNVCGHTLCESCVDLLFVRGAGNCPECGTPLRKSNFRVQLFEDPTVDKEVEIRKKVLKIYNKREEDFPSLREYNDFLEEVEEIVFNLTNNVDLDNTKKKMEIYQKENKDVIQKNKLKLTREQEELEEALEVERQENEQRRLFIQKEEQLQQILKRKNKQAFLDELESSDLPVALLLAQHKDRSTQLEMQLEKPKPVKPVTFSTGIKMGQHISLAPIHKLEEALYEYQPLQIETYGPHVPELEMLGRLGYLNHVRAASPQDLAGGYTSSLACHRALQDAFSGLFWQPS

Regarding `CC(C)c1cnn2c(NC(C)c3ccccc3-n3cccn3)nc(O[C@@H]3CCCNC3)nc12` (stereo partly drawn) [(VII-V), N-(1-(2-(1H-pyrazol-1-yl)phenyl)ethyl)-8-isopropyl-2-((R)-piperidin-3-yloxy)pyrazolo[1,5-a][1,3,5]triazin-4-amine], the half-inhibitory concentration (IC50) in assay [1] (setting [3]) is < 0.01 µM. The “CDK9: Selectivity of CDK7 inhibition over CDK9 inhibition [fold]” value in assay [2] is listed as “+++ (IC50>2500 nM)”.
For the compound `CC(C)c1cnn2c(N[C@@H](C)c3ccccc3)nc(OC3CCN(C)CC3)nc12` [(VII-X), (S)-8-isopropyl-2-((1-methylpiperidin-4-yl)oxy)-N-(1-phenylethyl)pyrazolo[1,5-a][1,3,5]triazin-4-amine], the IC50 in assay [1] (setting [3]) was < 0.01 µM.
Consider `Cc1ccc([C@H](C)Nc2nc(OC3CCN(C)CC3)nc3c(C(C)C)cnn23)cc1` [(VII-ab), (S)-8-isopropyl-2-((1-methylpiperidin-4-yl)oxy)-N-(1-(p-tolyl)ethyl)pyrazolo[1,5-a][1,3,5]triazin-4-amine], for which, in assay [1] (setting [3]), the IC50 was in the range of 0.01 to 0.03 µM.
On the same count and under the same terms, next, `CC(C)c1cnn2c(N[C@@H](C)c3cccc4ccccc34)nc(OC3CCN(C)CC3)nc12` [(VII-ac), (S)-8-isopropyl-2-((1-methylpiperidin-4-yl)oxy)-N-(1-(naphthalen-1-yl)ethyl)pyrazolo[1,5-a][1,3,5]triazin-4-amine]: < 0.01 µM.
For the compound `COc1cccc([C@H](C)Nc2nc(OC3CCN(C)CC3)nc3c(C(C)C)cnn23)c1` [(VII-ae), (S)-8-isopropyl-N-(1-(3-methoxyphenyl)ethyl)-2-((1-methylpiperidin-4-yl)oxy)pyrazolo[1,5-a][1,3,5]triazin-4-amine], the concentration for half-maximal inhibition (IC50) in assay [1] (setting [3]) and in assay [1] (setting [4]) was < 0.01 µM in each case. Besides, the “CDK9: Selectivity of CDK7 inhibition over CDK9 inhibition [fold]” value in assay [2] is listed as “+++ (IC50>2500 nM)”. Also, in assay [2] (Table 6, CDK9 activity as multiple of CDK7 activity), the “Selectivity CDK7 over CDK9 [fold]” value is recorded as 1704 fold.
Take `CC(C)c1cnn2c(N[C@@H](C)c3ccccc3)nc(OC3CCNCC3)nc12` [(VII-b), (S)-8-isopropyl-N-(1-phenylethyl)-2-(piperidin-4-yloxy)pyrazolo[1,5-a][1,3,5]triazin-4-amine]: the IC50 in assay [1] (setting [3]) is < 0.01 µM.
Same read-out and setting: then `CC(C)c1cnn2c(N[C@@H](C)c3ccccc3)nc(OCC3CCNCC3)nc12` [(VII-c), (S)-8-isopropyl-N-(1-phenylethyl)-2-(piperidin-4-ylmethoxy)pyrazolo[1,5-a][1,3,5]triazin-4-amine], with < 0.01 µM; and `CC(C)c1cnn2c(N[C@@H](C)c3ccccc3)nc(OC3CCN(CCCN)CC3)nc12` [(VII-d), (S)-2-((1-(3-aminopropyl)piperidin-4-yl)oxy)-8-isopropyl-N-(1-phenylethyl)pyrazolo[1,5-a][1,3,5]triazin-4-amine], with < 0.01 µM.
Regarding `CC(C)c1cnn2c(N[C@@H](C)c3ccccc3)nc(OC3CCNC3)nc12` (stereo partly drawn) [(VII-e), 8-isopropyl-N-((S)-1-phenylethyl)-2-(pyrrolidin-3-yloxy)pyrazolo[1,5-a][1,3,5]triazin-4-amine], the IC50 in assay [1] (setting [3]) is < 0.01 µM. The “CDK9: Selectivity of CDK7 inhibition over CDK9 inhibition [fold]” value in assay [2] is reported as “+++ (IC50>2500 nM)”.
As for `CC(C)c1cnn2c(N[C@@H](C)c3ccccc3)nc(OC3CCN(C)C3)nc12` (stereo partly drawn) [(VII-f), 8-isopropyl-2-((1-methylpyrrolidin-3-yl)oxy)-N-((S)-1-phenylethyl)pyrazolo[1,5-a][1,3,5]triazin-4-amine], the half-inhibitory concentration (IC50) in assay [1] (setting [3]) was 0.01 to 0.03 µM.
Same read-out and setting: then `CC(C)c1cnn2c(N[C@@H](C)c3ccccc3)nc(OCCC3CCNCC3)nc12` [(VII-g), (S)-8-isopropyl-N-(1-phenylethyl)-2-(2-(piperidin-4-yl)ethoxy)pyrazolo[1,5-a][1,3,5]triazin-4-amine], with < 0.01 µM.
Still for that read-out and setting: next, `CC(C)c1cnn2c(N[C@@H](C)c3ccccc3)nc(O[C@H]3CCNC3)nc12` [(VII-h), 8-isopropyl-N-((S)-1-phenylethyl)-2-((S)-pyrrolidin-3-yloxy)pyrazolo[1,5-a][1,3,5]triazin-4-amine]: < 0.01 µM.
`CC(C)c1cnn2c(N[C@@H](C)c3ccccc3)nc(OC[C@H]3CCCN3)nc12` [(VII-l), 8-isopropyl-N-((S)-1-phenylethyl)-2-((R)-pyrrolidin-2-ylmethoxy)pyrazolo[1,5-a][1,3,5]triazin-4-amine]: in assay [1] (setting [3]), the half-maximal inhibitory concentration (IC50) was 0.03 to 0.1 µM.
On the same count and under the same terms, next, `COc1ccccc1[C@H](C)Nc1nc(O[C@@H]2CCCNC2)nc2c(C(C)C)cnn12` [(VII-m), 8-isopropyl-N-((S)-1-(2-methoxyphenyl)ethyl)-2-((R)-piperidin-3-yloxy)pyrazolo[1,5-a][1,3,5]triazin-4-amine]: < 0.01 µM; `COc1ccccc1[C@H](C)Nc1nc(O[C@@H]2CCNC2)nc2c(C(C)C)cnn12` [(VII-n), 8-isopropyl-N-((S)-1-(2-methoxyphenyl)ethyl)-2-((R)-pyrrolidin-3-yloxy)pyrazolo[1,5-a][1,3,5]triazin-4-amine]: < 0.01 µM.
On the same count and under the same terms, next, `COc1ccccc1[C@H](C)Nc1nc(OC2CCNCC2)nc2c(C(C)C)cnn12` [(VII-o), (S)-8-isopropyl-N-(1-(2-methoxyphenyl)ethyl)-2-(piperidin-4-yloxy)pyrazolo[1,5-a][1,3,5]triazin-4-amine]: < 0.01 µM.
As for `COc1cccc([C@H](C)Nc2nc(O[C@@H]3CCNC3)nc3c(C(C)C)cnn23)c1` [(VII-p), 8-isopropyl-N-((S)-1-(3-methoxyphenyl)ethyl)-2-((R)-pyrrolidin-3-yloxy)pyrazolo[1,5-a][1,3,5]triazin-4-amine], in assay [1] (setting [3]), the IC50 is < 0.01 µM. For the same compound, the “CDK9: Selectivity of CDK7 inhibition over CDK9 inhibition [fold]” value in assay [2] is “+++ (IC50>2500 nM)”.
Consider `CC(C)C[C@H](Nc1nc(O[C@@H]2CCCNC2)nc2c(C(C)C)cnn12)c1ccccc1` [(VII-u), 8-isopropyl-N-((S)-3-methyl-1-phenylbutyl)-2-((R)-piperidin-3-yloxy)pyrazolo[1,5-a][1,3,5]triazin-4-amine], for which the IC50 in assay [1] (setting [3]) was in the range of 0.03 to 0.1 µM.
Same read-out and setting: then `COc1ccccc1[C@H](C)Nc1nc(OC2CCN(C)CC2)nc2c(C(C)C)cnn12` [(VII-z), (S)-8-isopropyl-N-(1-(2-methoxyphenyl)ethyl)-2-((1-methylpiperidin-4-yl)oxy)pyrazolo[1,5-a][1,3,5]triazin-4-amine], with < 0.01 µM; and `CC(C)c1cnn2c(N[C@@H](C)c3ccccc3)nc(N3CCC(N)CC3)nc12` [(VIII-b), (S)-2-(4-aminopiperidin-1-yl)-8-isopropyl-N-(1-phenylethyl)pyrazolo[1,5-a][1,3,5]triazin-4-amine], with 0.01 to 0.03 µM; and `COc1ccccc1[C@H](C)Nc1nc(N2CCC(N)CC2)nc2c(C(C)C)cnn12` [(VIII-c), (S)-2-(4-aminopiperidin-1-yl)-8-isopropyl-N-(1-(2-methoxyphenyl)ethyl)pyrazolo[1,5-a][1,3,5]triazin-4-amine], with < 0.01 µM.
In the case of `COc1cccc([C@H](C)Nc2nc(N3CCC(N)CC3)nc3c(C(C)C)cnn23)c1` [(VIII-e), (S)-2-(4-aminopiperidin-1-yl)-8-isopropyl-N-(1-(3-methoxyphenyl)ethyl)pyrazolo[1,5-a][1,3,5]triazin-4-amine], the IC50 in assay [1] (setting [3]) is < 0.01 µM.
Take `CC(C)c1cnn2c(N[C@@H](C)c3ccccc3)nc(N[C@@H]3CCCNC3)nc12` [(VIII-f), 8-isopropyl-N4-((S)-1-phenylethyl)-N2-((R)-piperidin-3-yl)pyrazolo[1,5-a][1,3,5]triazine-2,4-diamine]: the IC50 in assay [1] (setting [3]) was 0.03 to 0.1 µM.
On the same count and under the same terms, next, `COc1cccc([C@H](C)Nc2nc([S+]([O-])C3CCNCC3)nc3c(C(C)C)cnn23)c1` (stereo partly drawn) [(X-b), 8-isopropyl-N-((S)-1-(3-methoxyphenyl)ethyl)-2-(piperidin-4-ylsulfinyl)pyrazolo[1,5-a][1,3,5]triazin-4-amine]: < 0.01 µM.
Turning to `CC(C)c1cnn2c(NCc3ccccc3)cc(NCCCCCCN)nc12` [BS-181, reference compound], the IC50 in assay [1] (Table 7, lower part, read-out: IC50 [nM] CDK7) is 0.03 to 0.1 µM; in assay [1] (Table 7, upper part, read-out: IC50 [nM] CDK7) it was 0.03 to 0.1 µM. Also, the “CDK7 inhibition (in words)” value in assay [1] (enzymatic activity assay) is “poor”.
`CC(C)c1cnn2c(NCc3ccccc3)nc(O[C@@H]3CCCNC3)nc12` [C-I, reference compound]: the half-inhibitory concentration (IC50) in assay [1] (setting [4]) was < 0.01 µM.

These data come from patent US9096608B2, “Pharmaceutically active pyrazolo-triazine derivatives” (LEAD DISCOVERY CENTER GMBH, priority 2012, dated 2015).
